Measured values: patent US5129937A, “Pyridyloxypyrimidine derivatives, preparation process thereof, and herbicidal compositions containing the same as active ingredients” (Mitsui Toatsu Chemicals Incorporated, priority 1989, dated 1992)

Columns and labels:
[1] = system: ALS (acetolactate synthase); assay: ALS (Acetolactate Synthase) Inhibition Test, barnyardgrass enzyme; format: biochemical; conditions: enzymoreaction inhibition rate at 10 ppm (5 μg/0.5 ml)
Experimental: (§1) To determine the selectivity in enzyme level between crops and weeds, an ALS inhibition test was conducted using pea as a representative of broadleaf crops and barnyardgrass as a representative of gramineous weeds.
(§2) After seeds of pea and barnyardgrass were allowed to germinate at 25° C. for 8-14 days in a dark place, partially-purified suspensions (Suspensions A) of acetolactate syntase were separately obtained from seedlings in accordance with the method described in the literature, Plant Physiology, 75, 827-831. In a test tube, […], followed by the addition of 0.15 ml of a 20 mM K2 HPO4 solution and 0.25 ml of a reaction substrate medium which consisted of 40 mM of K2 HPO4, 40 mM of sodium pyruvate, 1 mM of TPP, 1 mM of MgCl2 and 20 μM of FAD so that 0.4 ml of a reaction solution (Solution B) was prepared. Added to 0.4 ml of Solution B was 0.1 ml of Suspension A. After the resultant mixture was shaken for 1 hour in a thermostat water bath controlled at 30° C., 50 μl of 6N sulfuric acid were added to terminate the reaction.
(§3) Next, the reaction-terminated liquid mixture was transferred into a thermostat water bath controlled at 60° C. and was heated for 15 minutes. Thereafter, 0.5 ml of a 0.5% creatine solution and 0.5 ml of a 5% alkaline α-naphthol solution were added, and the resultant mixture was maintained at 60° C. for 15 minutes. As a result, the test solution developed a pink-red color. After the above operation, the absorbance of the test solution at 525 nm was measured by a spectrophotometer (Absorbance 1 of Test Compound).
(§4) On the other hand, the absorbance (Absorbance 2 of Blank) of a solution obtained by subjecting a portion of Solution B, said portion being free of the test compound, to the above operation and the absorbance (Absorbance 3 of sulfuric acid terminated) of another solution obtained by subjecting another portion of Solution B, said portion containing 50 μl of 6N sulfuric acid as a test compound, were measured at the same time. […] [formula]

[2] = system: Cotton (Gossypium indicum); assay: Upland Foliar Application Test, crop injury; format: in vivo; conditions: 30 g ai/a; foliar application at 2-3 leaf stage, emulsion; observed on the 30th day
Text: (§5) Resin-made 1/10000-are pots were filled with the soil of an upland field. Redroot pigweed, morningglory (Ipomoea pupurea), common lambsquarters, foxtail meadow, johnsongrass, barnyardgrass, green foxtail, large crabgrass, soybean, corn and cotton were separately seeded and were allowed to germinate in a green house. When each plant grew to the stage of 2-3 leaves, an emulsion formulated from a predetermined amount of each test compound in a similar manner to the method described in Formulation Example 11 was diluted with water and then sprayed at a predetermined application rate by means of a pressure-operated ULV (ultra low volume) sprayer. The application rate was controlled at 5 l per are. Influence to the crops and weeds were observed on the 30th day after the spray of the herbicides. The results are shown in Table 4 in which the degree of damages of each test plant and the degree of injury to each crop are shown in a similar manner to Test 2.

Corn (Zea maize) = assay: Upland Foliar Application Test, crop injury; format: in vivo; conditions: 30 g ai/a; foliar application at 2-3 leaf stage, emulsion; observed on the 30th day
Text: as §5

Soybean (Glycine max) = assay: Upland Foliar Application Test, crop injury; format: in vivo; conditions: 30 g ai/a; foliar application at 2-3 leaf stage, emulsion; observed on the 30th day
Text: as §5

[3] = system: Crabgrass (Digitaria adsendens); assay: Upland Soil Application Test; format: in vivo; conditions: 30 g ai/a; soil application before emergence, wettable powder; observed 30 days later
Experimental: (§6) Resin-made 1/2500-are pots were filled with the soil of an upland field. After they were fertilized, soybean, corn and cotton were seeded and 2-3 cm soil covering was applied. Seeds of redroot pigweed, morningglory (Ipomoea purpurea), common lambsquarters, barnyardgrass, green foxtail, large crabgrass, foxtail meadow and johnsongrass had been uniformly mixed with the soil. They were allowed to germinate in a green house. One day later (before emergence of weeds), a wettable powder prepared from a predetermined amount of each test compound in a similar manner to the method described in Formulation Example 1 was diluted with water and then sprayed evenly at an application rate equal to 10 l per are onto the surface of the soil by means of a pressure-operated ULV (ultra low volume) sprayer. Influence to the crops and weeds were observed 30 days later. The results are shown in Table 3, in which the degree of damages of each test plant and the degree of injury to each crop were determined by comparing the air-dried weights of the test plant and crop with those of the corresponding plant and crop in untreated pots and are shown in accordance with the following standard: […]

[4] = system: Barnyardgrass (Echinochloa crus-galli); assay: Upland Soil Application Test; format: in vivo; conditions: 30 g ai/a; soil application before emergence, wettable powder; observed 30 days later
Experimental: as §6

Common lambsquarters = assay: Upland Soil Application Test; format: in vivo; conditions: 30 g ai/a; soil application before emergence, wettable powder; observed 30 days later
Experimental: as §6

Johnsongrass = assay: Upland Soil Application Test; format: in vivo; conditions: 30 g ai/a; soil application before emergence, wettable powder; observed 30 days later
Experimental: as §6

Redroot Pigweed = assay: Upland Soil Application Test; format: in vivo; conditions: 30 g ai/a; soil application before emergence, wettable powder; observed 30 days later
Experimental: as §6

[5] = system: Foxtail (Setaria viridis); assay: Upland Soil Application Test; format: in vivo; conditions: 30 g ai/a; soil application before emergence, wettable powder; observed 30 days later
Experimental: as §6

Foxtail meadow = assay: Upland Soil Application Test; format: in vivo; conditions: 30 g ai/a; soil application before emergence, wettable powder; observed 30 days later
Experimental: as §6

[6] = system: Barnyardgrass (Echinochloa crus-galli); assay: Submerged Soil Treatment Test (Pre-Emergence Treatment); format: in vivo; conditions: 30 g ai/a, granule, observed 30 days later
Experimental: (§7) 1/5000-are Wagner pots were filled with soil. Seeds or tubers of barnyardgrass, bulrush and Sagittaria pygmaea were seeded or planted under submerged condition. Two pairs of rice seedlings (2-3 leaf stage), which had been reared in advance, were transplanted to each pot and were allowed to germinate in a green house. Each pair consisted of two rice seedlings. On day later (before emergence of weeds), each pot was treated with a granule which had been prepared by processing a predetermined amount of the test composition in accordance with a similar method to the method described in Formulation Example 9. The state of emergence of weeds and the state of injury of rice were observed 30 days later. In the table, the degrees of damages of the test plants and the degrees of injury of rice are shown in a similar manner to Example 2.

[7] = system: Bulrush (Scirpus juncoides); assay: as above; format: in vivo; conditions: 30 g ai/a, granule, observed 30 days later
Experimental: as §7

[8] = system: Arrowhead sp. (Sagittaria pygmaea); assay: as above; format: in vivo; conditions: 30 g ai/a, granule, observed 30 days later
Experimental: as §7

[9] = system: ALS (acetolactate synthase); assay: ALS (Acetolactate Synthase) Inhibition Test, pea enzyme; format: biochemical; conditions: enzymoreaction inhibition rate at 10 ppm (5 μg/0.5 ml)
Experimental: as §1, §2, §3, §4

Compound | Inhibition rate (%) Barnyardgrass [1] [%] | Crop injury Cotton (Gossypium indicum) [2] | Crop injury Corn (Zea maize) (Corn (Zea maize)) | Crop injury Soybean (Glycine max) (Soybean (Glycine max)) | Herbicidal effects Crabgrass (Digitaria adsendens) [3] | Herbicidal effects Barnyardgrass (Echinochloa crus-galli) [4] | Herbicidal effects Common lambquarters (Common lambsquarters) | Herbicidal effects Johnsongrass (Johnsongrass) | Herbicidal effects Redroot Pigweed (Redroot Pigweed) | Herbicidal effects Foxtail (Setaria viridis) [5] | Herbicidal effects Foxtail meadow (Foxtail meadow) | Herbicidal effects Barnyardgrass (Echinochloa crus-galli) [6] | Herbicidal effects Bulrush (Scirpus juncoides) [7] | Herbicidal effects Arrowhead sp. (Sagittaria pygmaea) [8] | Inhibition rate (%) Pea [9] [%]
COc1cc(OC)nc(Oc2cccnc2C(OC)OC(C)C)n1 (stereo not drawn) [Compound No. 5, 3-(4.6-dimethoxy-2-pyrimidinyloxy)-2-pyridinecarboxaldehyde isopropylmethylacetal] | 100 | 0 (91-100 (No damages)) | 0 (91-100 (No damages)) | 0 (91-100 (No damages)) | 4 (6-10 (Severe damages)) | 4 (6-10 (Severe damages)) | 5 (0-5 (Death)) | 5 (0-5 (Death)) | 5 (0-5 (Death)) | 5 (0-5 (Death)) | 5 (0-5 (Death)) | 5 (0-5 (Death)) | 5 (0-5 (Death)) | 5 (0-5 (Death)) | 0
COc1cc(OC)nc(Oc2cccnc2C2OCCO2)n1 [Compound No. 6] | 96 | 0 (91-100 (No damages)) | 0 (91-100 (No damages)) | 0 (91-100 (No damages)) | 3 (11-40 (Medium damages)) | 3 (11-40 (Medium damages)) | 4 (6-10 (Severe damages)) | 5 (0-5 (Death)) | 4 (6-10 (Severe damages)) | 4 (6-10 (Severe damages)) | 4 (6-10 (Severe damages)) | 5 (0-5 (Death)) | 5 (0-5 (Death)) | 5 (0-5 (Death)) | 0
COc1cc(OC)nc(Oc2cccnc2C2OCC(C)O2)n1 (stereo not drawn) [Compound No. 7] | 87 | 0 (91-100 (No damages)) | 0 (91-100 (No damages)) | 0 (91-100 (No damages)) | 4 (6-10 (Severe damages)) | 5 (0-5 (Death)) | 4 (6-10 (Severe damages)) | 5 (0-5 (Death)) | 4 (6-10 (Severe damages)) | 5 (0-5 (Death)) | 4 (6-10 (Severe damages)) | 5 (0-5 (Death)) | 5 (0-5 (Death)) | 4 (6-10 (Severe damages)) | 0
COc1cc(OC)nc(Oc2cccnc2C2OCCCO2)n1 [Compound No. 8] | 86 | 0 (91-100 (No damages)) | 0 (91-100 (No damages)) | 0 (91-100 (No damages)) | 3 (11-40 (Medium damages)) | 4 (6-10 (Severe damages)) | 3 (11-40 (Medium damages)) | 4 (6-10 (Severe damages)) | 3 (11-40 (Medium damages)) | 3 (11-40 (Medium damages)) | 4 (6-10 (Severe damages)) | 5 (0-5 (Death)) | 4 (6-10 (Severe damages)) | 4 (6-10 (Severe damages)) | 0
